According to ChEMBL document CHEMBL4007384, “Synthesis and optimization of furano[3,2-d]pyrimidines as selective spleen tyrosine kinase (Syk) inhibitors” (Bioorg Med Chem Lett, 2016):

Assays:
[1] = target: Epithelial discoidin domain-containing receptor 1 (Homo sapiens, UniProt Q08345); test: Inhibition of DDR1 (unknown origin) after 60 mins by TR-FRET assay
[2] = target: Epidermal growth factor receptor (Homo sapiens, UniProt P00533); test: Inhibition of EGFR (unknown origin) after 60 mins by TR-FRET assay
[3] = target: Mitogen-activated protein kinase kinase kinase 10 (Homo sapiens, UniProt Q02779); test: Inhibition of MAP3K10 (unknown origin) after 60 mins by TR-FRET assay
[4] = target: Serine/threonine-protein kinase pim-2 (Homo sapiens, UniProt Q9P1W9); test: Inhibition of PIM2 (unknown origin) after 60 mins by TR-FRET assay
[5] = target: Serine/threonine-protein kinase Sgk1 (Homo sapiens, UniProt O00141); test: Inhibition of SGK1 (unknown origin) after 60 mins by TR-FRET assay
[6] = target: Protein kinase C zeta type (Homo sapiens, UniProt Q05513); test: Inhibition of PKCzeta (unknown origin) after 60 mins by TR-FRET assay
[7] = target: RAC-alpha serine/threonine-protein kinase (Homo sapiens, UniProt P31749); test: Inhibition of AKT (unknown origin) after 60 mins by TR-FRET assay
[8] = target: Dual specificity mitogen-activated protein kinase kinase 3 (Homo sapiens, UniProt P46734); test: Inhibition of MAP2K3 (unknown origin) after 60 mins by TR-FRET assay
[9] = Unbound clearance in human microsomes; assay type: ADME, Microsome

Serine/threonine-protein kinase Sgk1, sequence (O00141 whole entry): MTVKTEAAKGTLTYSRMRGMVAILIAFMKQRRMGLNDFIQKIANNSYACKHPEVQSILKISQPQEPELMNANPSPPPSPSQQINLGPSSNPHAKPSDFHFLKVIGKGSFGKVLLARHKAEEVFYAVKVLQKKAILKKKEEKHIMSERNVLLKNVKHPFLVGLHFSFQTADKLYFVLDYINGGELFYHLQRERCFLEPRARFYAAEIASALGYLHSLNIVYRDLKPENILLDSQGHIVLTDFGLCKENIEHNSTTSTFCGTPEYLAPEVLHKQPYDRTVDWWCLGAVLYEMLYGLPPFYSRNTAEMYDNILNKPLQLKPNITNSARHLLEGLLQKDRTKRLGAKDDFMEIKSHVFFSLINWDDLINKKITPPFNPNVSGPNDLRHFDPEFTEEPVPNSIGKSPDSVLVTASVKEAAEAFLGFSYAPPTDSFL
Mitogen-activated protein kinase kinase kinase 10, sequence (Q02779 whole entry): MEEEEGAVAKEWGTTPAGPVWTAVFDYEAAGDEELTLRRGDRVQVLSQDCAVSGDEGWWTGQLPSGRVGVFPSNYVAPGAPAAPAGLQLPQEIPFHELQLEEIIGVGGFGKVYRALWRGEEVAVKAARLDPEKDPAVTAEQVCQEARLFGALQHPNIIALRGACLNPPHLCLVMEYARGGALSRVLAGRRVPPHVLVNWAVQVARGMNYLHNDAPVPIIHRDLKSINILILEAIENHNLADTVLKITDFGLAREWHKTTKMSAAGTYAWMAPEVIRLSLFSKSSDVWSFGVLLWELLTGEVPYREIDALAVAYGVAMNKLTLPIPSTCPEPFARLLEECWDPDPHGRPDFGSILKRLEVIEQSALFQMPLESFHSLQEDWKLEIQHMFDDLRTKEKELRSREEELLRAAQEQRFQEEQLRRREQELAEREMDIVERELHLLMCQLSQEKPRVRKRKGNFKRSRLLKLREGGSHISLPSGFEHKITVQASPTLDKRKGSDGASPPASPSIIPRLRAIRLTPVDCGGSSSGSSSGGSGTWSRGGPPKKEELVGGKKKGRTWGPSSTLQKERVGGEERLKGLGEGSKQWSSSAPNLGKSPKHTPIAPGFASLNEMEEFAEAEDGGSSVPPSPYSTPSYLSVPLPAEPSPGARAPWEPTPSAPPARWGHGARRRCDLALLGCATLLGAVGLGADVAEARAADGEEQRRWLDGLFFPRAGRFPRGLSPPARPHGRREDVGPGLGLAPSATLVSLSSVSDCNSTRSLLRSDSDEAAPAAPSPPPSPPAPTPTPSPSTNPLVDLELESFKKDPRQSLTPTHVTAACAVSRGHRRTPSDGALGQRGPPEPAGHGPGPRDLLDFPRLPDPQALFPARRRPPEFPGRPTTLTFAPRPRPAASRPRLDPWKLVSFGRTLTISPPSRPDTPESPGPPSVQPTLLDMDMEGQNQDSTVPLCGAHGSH
Epithelial discoidin domain-containing receptor 1, sequence (Q08345 whole entry, the tested form may be a part): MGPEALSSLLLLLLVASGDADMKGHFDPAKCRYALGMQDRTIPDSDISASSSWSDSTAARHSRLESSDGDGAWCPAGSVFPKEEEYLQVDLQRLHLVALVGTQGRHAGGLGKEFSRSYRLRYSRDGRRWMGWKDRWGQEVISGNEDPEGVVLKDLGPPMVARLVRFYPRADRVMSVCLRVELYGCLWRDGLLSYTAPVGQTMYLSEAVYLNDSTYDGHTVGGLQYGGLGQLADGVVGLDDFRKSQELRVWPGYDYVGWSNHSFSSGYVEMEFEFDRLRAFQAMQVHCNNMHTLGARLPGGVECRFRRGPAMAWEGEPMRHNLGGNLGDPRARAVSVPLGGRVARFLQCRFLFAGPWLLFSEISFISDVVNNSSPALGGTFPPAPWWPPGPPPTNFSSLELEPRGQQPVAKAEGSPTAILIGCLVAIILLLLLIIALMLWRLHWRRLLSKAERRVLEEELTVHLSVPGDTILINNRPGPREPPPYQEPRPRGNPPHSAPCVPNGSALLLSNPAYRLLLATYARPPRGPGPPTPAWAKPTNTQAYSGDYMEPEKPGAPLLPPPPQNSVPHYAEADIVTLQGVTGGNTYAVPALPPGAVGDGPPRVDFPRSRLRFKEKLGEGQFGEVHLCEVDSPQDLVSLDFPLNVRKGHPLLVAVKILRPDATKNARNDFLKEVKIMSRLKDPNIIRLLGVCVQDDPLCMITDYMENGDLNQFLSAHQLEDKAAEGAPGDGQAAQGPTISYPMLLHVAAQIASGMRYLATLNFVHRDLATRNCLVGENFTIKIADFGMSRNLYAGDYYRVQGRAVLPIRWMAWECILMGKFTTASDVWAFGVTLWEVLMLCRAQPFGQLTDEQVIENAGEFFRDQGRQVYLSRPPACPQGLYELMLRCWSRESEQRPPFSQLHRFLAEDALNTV
RAC-alpha serine/threonine-protein kinase, sequence (P31749 whole entry): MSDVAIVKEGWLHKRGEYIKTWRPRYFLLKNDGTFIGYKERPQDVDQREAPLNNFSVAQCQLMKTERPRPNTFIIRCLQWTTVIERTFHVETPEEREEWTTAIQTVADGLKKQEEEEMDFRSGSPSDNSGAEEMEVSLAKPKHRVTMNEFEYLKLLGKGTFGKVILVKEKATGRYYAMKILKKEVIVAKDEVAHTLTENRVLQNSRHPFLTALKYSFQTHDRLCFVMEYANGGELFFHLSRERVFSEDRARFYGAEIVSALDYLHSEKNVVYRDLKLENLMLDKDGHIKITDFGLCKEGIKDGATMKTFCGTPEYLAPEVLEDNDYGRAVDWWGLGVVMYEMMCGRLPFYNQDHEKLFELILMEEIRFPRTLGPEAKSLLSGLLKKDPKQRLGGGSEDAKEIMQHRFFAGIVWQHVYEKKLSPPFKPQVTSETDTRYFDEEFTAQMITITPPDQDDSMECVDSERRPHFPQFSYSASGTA
Serine/threonine-protein kinase pim-2, sequence (Q9P1W9 whole entry): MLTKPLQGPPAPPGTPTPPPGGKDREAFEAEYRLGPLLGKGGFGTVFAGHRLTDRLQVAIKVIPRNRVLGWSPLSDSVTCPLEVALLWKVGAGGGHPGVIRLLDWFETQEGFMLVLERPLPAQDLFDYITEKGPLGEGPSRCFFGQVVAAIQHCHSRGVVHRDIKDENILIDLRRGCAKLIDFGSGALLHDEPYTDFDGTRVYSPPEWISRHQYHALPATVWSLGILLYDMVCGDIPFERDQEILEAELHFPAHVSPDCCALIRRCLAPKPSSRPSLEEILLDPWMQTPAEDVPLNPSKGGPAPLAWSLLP
Dual specificity mitogen-activated protein kinase kinase 3, sequence (P46734 whole entry): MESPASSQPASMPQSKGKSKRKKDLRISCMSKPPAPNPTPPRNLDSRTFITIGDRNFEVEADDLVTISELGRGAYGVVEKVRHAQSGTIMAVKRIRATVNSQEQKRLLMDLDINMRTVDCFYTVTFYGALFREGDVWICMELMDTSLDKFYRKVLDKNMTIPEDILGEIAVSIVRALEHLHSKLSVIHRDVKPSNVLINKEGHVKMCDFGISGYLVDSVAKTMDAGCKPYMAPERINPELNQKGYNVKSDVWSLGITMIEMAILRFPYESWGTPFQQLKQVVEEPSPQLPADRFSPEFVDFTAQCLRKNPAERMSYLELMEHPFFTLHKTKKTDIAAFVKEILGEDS
Protein kinase C zeta type, sequence (Q05513 whole entry): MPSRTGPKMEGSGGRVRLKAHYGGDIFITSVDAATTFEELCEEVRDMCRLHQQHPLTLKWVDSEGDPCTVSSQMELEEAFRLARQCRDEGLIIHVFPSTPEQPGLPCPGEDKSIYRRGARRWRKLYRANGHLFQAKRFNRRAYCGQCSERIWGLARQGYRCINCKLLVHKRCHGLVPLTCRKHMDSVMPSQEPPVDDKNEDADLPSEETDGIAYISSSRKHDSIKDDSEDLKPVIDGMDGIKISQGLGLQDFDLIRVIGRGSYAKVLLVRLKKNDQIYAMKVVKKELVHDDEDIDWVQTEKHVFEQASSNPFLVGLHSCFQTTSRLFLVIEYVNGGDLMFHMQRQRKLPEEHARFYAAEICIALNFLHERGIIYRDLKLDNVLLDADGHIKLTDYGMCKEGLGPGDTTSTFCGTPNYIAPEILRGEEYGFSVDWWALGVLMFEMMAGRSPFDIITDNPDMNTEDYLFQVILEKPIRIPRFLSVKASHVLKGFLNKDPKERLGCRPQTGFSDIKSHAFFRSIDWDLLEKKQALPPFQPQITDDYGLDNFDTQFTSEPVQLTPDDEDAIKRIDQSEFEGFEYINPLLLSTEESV

IC50 [1]: > 10 µM | IC50 [2]: > 10 µM | IC50 [3]: 4.55 µM | IC50 [4]: > 10 µM | IC50 [5]: > 10 µM | IC50 [6]: > 10 µM | IC50 [7]: > 10 µM | IC50 [8]: > 10 µM | CL free [9]: 170 mL/min/kg
SMILES: CC1(C)OCC(=O)Nc2cc(Nc3nc(NCC(F)(F)F)c4occc4n3)ccc21
